# Read-outs that look alike come from different tables or passages of the source.
# Experiments:
# [1] = system: SW837 cells; assay: DNA fragmentation assay; assay type: cell-based, human; conditions: Sora 5 µM, PPC 200 and 400 µM, sequential combinations, 72 h, Fig. 8B, D
# Protocol: (§1) Induction of apoptosis was monitored using a DNA fragmentation assay following the manufacturer’s instructions (Apoptotic DNA Ladder Detection kit; Abcam). […] Cells were subsequently incubated at 37 °C for 72 h. The cells were then trypsinized, harvested, washed, pelleted, and lysed using Tris–EDTA (TE) lysis buffer (35 µl). Enzyme A solution (RNase; 5 µl) was added, followed by incubation at 37 °C for 10 min. Enzyme B solution (proteinase; 5 µl) was then added, followed by incubation at 50 °C for 30 min. Ammonium acetate solution (5 µl) and isopropanol (50 µl) were added to each sample and incubated at -20 °C for 10 min. Finally, the DNA was pelleted, washed with 0.5 ml 70% methanol, and dissolved in 30 µl DNA suspension buffer. The extracted DNA samples were loaded onto a 1.2% agarose gel, along with a loading marker (1 kb DNA ladder), and subjected to electrophoresis, using a running buffer containing 1.35 µg/ml ethidium bromide at 5 V/cm for 1 h. Ethidium bromide-stained DNA bands were visualized using transillumination with UV light.
# [2] = system: SW1116 cells; assay: DNA fragmentation assay; assay type: cell-based, human; conditions: Sora 5 µM, PPC 200 and 400 µM, simultaneous combinations, 72 h, Fig. 8A, C
# Protocol: as §1
# [3] = system: SW837 human rectum cancer cell line; assay: MTT assay, single and schedule-dependent combined treatment; assay type: cell-based; conditions: Sora 0.25-10 µM alone
# [4] = system: SW837 human rectum cancer cell line; assay: as above; assay type: cell-based; conditions: Sora 0.25-10 µM alone; for IC50: Homo sapiens, SW837, SW837, read-out: IC-values (µM): IC50
# Protocol: (§2) The plates were washed, and PPCs [Cur, Kmf, or Que (60 or 120 µM), or Rsv (40 or 80 µM)] were added, followed by incubation at 37 °C for 48 h. For inverted sequential treatment, PPC [Cur, Kmf, or Que (60 or 120 µM), or Rsv (40 or 80 µM)] was added and incubated at 37 °C for 24 h. […] Cell growth was monitored as previously described.
# [5] = system: SW1116 human colon cancer cell line; assay: as above; assay type: cell-based; conditions: Sora 0.25-10 µM alone; for IC80: Homo sapiens, SW 1116, 72 h, read-out: IC-values (µM): IC80
# Protocol: as §2
# [6] = system: DLD-1 colon tumor model; set-up: method as in PMID 14692718; conditions: cited from earlier work
# [7] = system: SW837 cells; assay: Annexin V-FITC/PI double staining, flow cytometry; assay type: cell-based, human
# Protocol: (§3) The levels of cell surface phosphatidylserine were determined to monitor the type of cell death and the kinetics of apoptosis. The CRC cell lines SW1116 and SW837 were seeded (2.5 × 10^5 cells/well) into 24-well plates and incubated in a non-CO2 incubator at 37 °C for 18 h. […] The cells were subsequently washed twice with HBSS and harvested using trypsin. Finally, the cells were double-stained using the Annexin V-FITC-Flous staining kit, according to the manufacturer’s instructions (Roche Diagnostic GmbH). Annexin V-Flous labelling solution containing Annexin V-FITC and PI (100 µl) was added to both the treated and control cell groups and incubated at 15–20 °C for 15 min. The cells (1 × 10^6 cells/ml) were then resuspended in binding buffer, and fluorescence was monitored using flow cytometry (FC500; Beckman Coulter, Inc.).
# [8] = system: SW1116 cells; assay: Annexin V-FITC/PI double staining, flow cytometry; assay type: cell-based, human
# Protocol: as §3
# [9] = system: SW837 cells; assay: Cell cycle analysis by flow cytometry (PI); assay type: cell-based, human; conditions: Sora 5 µM, 72 h
# Protocol: (§4) The cells were subsequently processed using a DNA-prep kit and DNA-Prep EPICS workstation. The cells were treated with a non-ionic detergent to permeabilize the cell membrane, followed by propidium iodide (PI) and RNase, and incubated at 15–20 °C for 15 min. The cells were resuspended in binding buffer at a concentration of 3–10 × 10^6 cells/ml for optimal staining. Fluorescence was measured using a flow cytometer (Beckman Coulter, Inc.), and the percentage of cells in the different phases of the cell cycle was calculated using the Phoenix statistical software package, Advanced DNA cell cycle software (Phoenix Flow System).
# [10] = system: SW1116 cells; assay: Cell cycle analysis by flow cytometry (PI); assay type: cell-based, human; conditions: Sora 5 µM, 72 h
# Protocol: as §4
# [11] = clinical treatment with Sora, cited from earlier work
# [12] = arm a of simultaneous Sora and Cur 72 h
# [13] = arm a of simultaneous Sora and Kmf 72 h
# [14] = arm a of inverted sequential: Que 24 h followed by Sora 48 h
# [15] = arm a of inverted sequential: Rsv 24 h followed by Sora 48 h
# [16] = arm a of sequential: Sora 24 h followed by Que 48 h
# [17] = arm a of sequential: Sora 24 h followed by Rsv 48 h
smiles,measurement,setting,value
"CNC(=O)c1cc(Oc2ccc(NC(=O)Nc3ccc(Cl)c(C(F)(F)F)c3)cc2)ccn1 [Sora, sorafenib]",DNA fragmentation,[1],increased levels of DNA fragmentation
same,induction of apoptosis as indicated by DNA fragmentation,[2],marked induction of apoptosis
same,IC50,"[3]; Homo sapiens, SW837, 72 h, arm a of simultaneous Sora and Que 72 h, read-out: IC-values (µM): IC50",6.57 µM
same,IC-values (µM): IC60,[3]; [12],IC60 = 7.43 µM
same,IC-values (µM): IC60,[3]; [13],IC60 = 7.14 µM
same,IC-values (µM): IC60,[3]; arm a of simultaneous Sora and Rsv 72 h,IC60 = 7.71 µM
same,IC50,[4]; [14],6.86 µM
same,IC50,[4]; [15],6.57 µM
same,IC50,[4]; [16],6.86 µM
same,IC50,[4]; [17],6.86 µM
same,IC-values (µM): IC60,"[4]; SW837, arm a of inverted sequential: Cur 24 h followed by Sora 48 h",IC60 = 8.00 µM
same,IC-values (µM): IC60,"[4]; SW837, arm a of inverted sequential: Kmf 24 h followed by Sora 48 h",IC60 = 7.43 µM
same,IC-values (µM): IC70,"[4]; SW837, arm a of sequential: Sora 24 h followed by Cur 48 h",IC70 = 0.86 µM
same,IC-values (µM): IC60,"[4]; SW837, arm a of sequential: Sora 24 h followed by Kmf 48 h",IC60 = 7.43 µM
same,IC80,[5]; [12],4.86 µM
same,IC80,[5]; [13],4.86 µM
same,IC80,[5]; arm a of simultaneous Sora and Que 72 h,4 µM
same,IC-values (µM): IC70,[5]; arm a of inverted sequential: Cur 24 h followed by Sora 48 h,IC70 = 6.00 µM
same,IC-values (µM): IC60,[5]; arm a of inverted sequential: Kmf 24 h followed by Sora 48 h,IC60 = 4.86 µM
same,IC-values (µM): IC60,[5]; [14],IC60 = 4.86 µM
same,IC-values (µM): IC60,[5]; [15],IC60 = 4.86 µM
same,IC-values (µM): IC60,[5]; arm a of sequential: Sora 24 h followed by Cur 48 h,IC60 = 7.70 µM
same,IC-values (µM): IC60,[5]; arm a of sequential: Sora 24 h followed by Kmf 48 h,IC60 = 0.57 µM
same,IC-values (µM): IC60,[5]; [16],IC60 = 0.57 µM
same,IC-values (µM): IC60,[5]; [17],IC60 = 0.57 µM
same,delay of tumor cell growth,[6],100%
same,viability at 5 µM,"[7]; Homo sapiens, SW837, 72 h, read-out: B3, percentage of viable cells",52.4%
same,"B1, percentage of necrotic cells","[7]; SW837, Sora 5 µM, 72 h",9.6%
same,"B2, percentage of late apoptotic cells","[7]; SW837, Sora 5 µM, 72 h",33.6%
same,"B4, percentage of early apoptotic cells","[7]; SW837, Sora 5 µM, 72 h",4.7%
same,viability at 5 µM,"[8]; Homo sapiens, SW 1116, 72 h, read-out: B3, percentage of viable cells",14.1%
same,"B1, percentage of necrotic cells","[8]; SW1116, Sora 5 µM, 72 h",13.6%
same,"B2, percentage of late apoptotic cells","[8]; SW1116, Sora 5 µM, 72 h",37.3%
same,"B4, percentage of early apoptotic cells","[8]; SW1116, Sora 5 µM, 72 h",35%
same,%G0/G1 (cells in G0/G1 phase),[9],52.0%
same,%G2/M (cells in G2/M phase),[9],12.9%
same,%S (cells in S phase),[9],34.9%
same,%SubG1 (cells in sub G1),[9],1.4%
same,%G0/G1 (cells in G0/G1 phase),[10],38.0%
same,%G2/M (cells in G2/M phase),[10],0.0%
same,%S (cells in S phase),[10],61.0%
same,%SubG1 (cells in sub G1),[10],8.4%
same,patients in whom side effects demand a dose reduction,[11],> 60%
same,patients with inhibition of treatment due to side effects,[11],6–25%
same,patients developing toxic side effects,"[11]; hand-foot syndrome, diarrhoea, fatigue, rash, weight loss",up to 80%

# — article PMC10294390 (BMC Complementary Medicine and Therapies, 2023)
